{
  "source": "patent US20110150946A1",
  "about": "(priority 2008, published 2011)",
  "origin": "cited, not measured here",
  "conditions": "sublingual apomorphine 4 mg per patient",
  "data": [
    {"smiles": "CN1CCc2cccc3c2[C@H]1Cc1ccc(O)c(O)c1-3", "note": "[apomorphine, 5,6,6a,7-tetrahydro-6-methyl-4H-dibenzo[de, g]quinoline-10,11-diol]", "values": [
      {"measurement": "nausea incidence", "result": 14.1, "unit": "%"}
    ]}
  ]
}
